This is an account of results in patent publication US20190252037A1 (priority 2016, published 2019).

The assay concerns FluB polymerase K631A+R634A. Type of assay: binding, human influenza B/Memphis/13/03.

With “Pol II CTD peptide, four heptad repeats Tyr-Ser-Pro-Thr-SerP-Pro-Ser (28 amino acids), FAM-labelled at the N-terminal end for binding assays (Covalab) [28-mer SeP5 peptide]”, the “decrease in the binding affinity compared to wild type” value is given as 2.5 fold.
